Source: patent US8591761B2, “Apparatus including hydrofluoroether with high temperature stability and uses thereof” (3M Innovative Properties Company, priority 2009, dated 2013)
Where two headings read alike, the source gives them in different places.

How the values were obtained:
[1] = type: physicochemical; settings: for stability of the HFE to temperature (conclusion from ketone concentration): heated at 150° C. for 8 days
Experimental: Stability testing was carried out by heating of the various samples in clean, PYREX glass round bottom flasks at the temperatures noted below.
The stability of H(CF2CF2)3CH2OCF2CFHCF3 was tested by placing a portion of the ether, prepared essentially as described in Example 1 and treated with both HF and potassium permanganate, (˜100 g) into a new PYREX glass flask containing a reflux condenser under nitrogen and heating to 150° C. for 36 days. Samples of the liquid were taken at 7, 14, 26 and 36 day time intervals and the composition was monitored by GC/MS for breakdown products of the parent molecule. […] The compositional analysis (GC/MS and GC-FID) verified this conclusion. After this heating period, the sample was then heated to 180° C. for an additional 14 days.
The stability of H(CF2CF2)3CH2OCF2CFHOCF3 was tested by placing a portion of the ether, prepared as described above, (75 g) into a flask containing a reflux condenser under nitrogen and heating while stirring magnetically to 175° C. for 15 days. Samples of the liquid were taken at 1, 2, 3, 4, 7, 8, 9, 11 and 15 day time intervals and analyzed by gas chromatography. In addition, the starting material and the material at the end of the heating period were analyzed by GC/MS for breakdown products of the parent molecule.
Stability testing in glass was carried out by placing about 100 g of the ether in a 500 ml, round bottom flask equipped with a water condenser and heated with magnetic stirring to 150° C. for seven days. Samples of the liquid were taken on days 1, 2, 3, 4, and 7 and analyzed by gas chromatography, HF gas probe, and pH paper. After one day, the pH had dropped from the initial value neutral value of 7 to 5 and remained at that level the remainder of the test.
50 grams of the hydrofluoroether was charged to a 50 mL round bottom flask. The material was heated at 150° C. for 8 days with samples taken at day 1, 2, 3, 6, and 8. The primary breakdown product from the parent molecule that was monitored was the ketone intermediate, C3F7OCF(CF3)CF2OCF(CF3)C(O)CF2CF3. This was monitored using GC-FID.
50 grams of the hydrofluoroether was charged to a 50 mL round bottom flask. The material was heated at 150° C. for 8 days with samples taken at day 1, 2, 5, 7, and 8. The primary breakdown product from the parent molecule that was monitored was the ketone intermediate, C3F7OCF(CF3)CF2OCF(CF3)C(O)CF2CF3. This was monitored using GC-FID.
50 g of the hydrofluoroether was charged to a 50 mL round bottom flask. The material was heated at 150° C. for 7 days with samples taken at days 3, 5, and 7 days. The primary breakdown products from the parent molecule that were monitored was vinyl ether, C4F9OCF(CF3)CF2OCF═CF2 and the hydride C4F9OCF(CF3)CF2OCFHCF3. These were monitored using GC-FID.
50 g of the hydrofluoroether was charged to a 50 mL round bottom flask. […] The primary breakdown products from the parent molecule that were monitored was vinyl ether, C3F7(OCF(CF3)CF2)2OCF═CF2 and the hydride C3F7(OCF(CF3)CF2)2OCF═HCF3. These were monitored using GC-FID.

[2] = type: physicochemical; settings: for breakdown product diketone (CF3)2CFCOC2F4COCF(CF3)2: other studies; for appearance of the metal parts of the chiller: over the lifetime of the test; for changes in the composition of the circulating fluid (NMR, GC/MS): circulated through closed stainless steel loop at 150° C. for 28 days
Experimental: The long term stability of HC6F12CH2OCF2CFHCF3 in a commercial chiller unit was tested. The chiller used for this test was a Lydall Affinity Chiller, model PWL-003 KBE48CBC3 with an operating range of 10° C. to 200° C. HC6F12CH2OCF2CFHCF3 was circulated through a closed stainless steel loop at 150° C. for 28 days. During this time the chiller operated continuously except for short periods for taking samples in which the fluid was cooled to room temperature before the sample was removed. […] The composition of the circulating fluid was analyzed by GC/MS periodically (on days 1, 3, 6, 13, 20, and 28) to determine whether any changes in the fluid had occurred. Fluorine NMR analysis of the fluid before the testing and after completion of the testing was also carried out. […] A very small level of HF (1.4 ppm) was observed initially and this value decreased to 0 ppm by day 13. HF was also monitored in the liquid phase by titration and never exceeded a value of 0.52 ppm.
A comparative hydrofluoroether 2,3,3,4,4-pentafluoro-2,5-bis(perfluoropropan-2-yl)-5-ethoxytetrahydrofuran (II) was also tested multiple times in this same system under the same conditions. The composition of this fluid was monitored periodically over about thirty days for composition changes from the input material. […] HF was also monitored in the liquid phase by titration and ranged between 0.34 and 0.36 ppm. […] Depending on the study this corrosion varied between quite marked with the formation of black or greenish deposits to less obvious but still showing significant signs of a corrosive agent derived from the fluid. This corrosion as well as the formation of the diketone breakdown product rendered this material unacceptable for use in such a high temperature heat transfer application.
Furthermore, the heat transfer fluid that includes the hydrofluoroether compound from Example 1 was tested for long term stability in a commercial chiller unit as described in Example 3. […] As a comparison, the compound from Comparative Example 1 was put through the same test.

CCOC1(C(F)(C(F)(F)F)C(F)(F)F)OC(F)(C(F)(C(F)(F)F)C(F)(F)F)C(F)(F)C1(F)F (centres unmarked) [Comparative Example 1, 2,3,3,4,4-pentafluoro-2,5-bis(perfluoropropan-2-yl)-5-ethoxytetrahydrofuran]
ppm F (HF levels in the liquid phase) ([1]; 150° C., Day 0): <0.1 ppm
ppm F (HF levels in the liquid phase) ([1]; 150° C., Day 1): 1.0 ppm
ppm F (HF levels in the liquid phase) ([1]; 150° C., Day 2): 1.8 ppm
ppm F (HF levels in the liquid phase) ([1]; 150° C., Day 3): 2.6 ppm
ppm F (HF levels in the liquid phase) ([1]; 150° C., Day 4): 3.2 ppm
ppm F (HF levels in the liquid phase) ([1]; 150° C., Day 7): 3.9 ppm
pH (pH paper) ([1]; 150° C., after one day, remained at that level the remainder of the test): 5
HF level in the headspace (PortaSens probe) ([1]; 150° C., day 3, maximum level which the probe could detect, did not change for remainder of test): 27 ppm
decomposition product diketone (CF3)2CFCOC2F4COCF(CF3)2 level ([1]; 150° C., day 7): 1648 ppm
pH (pH paper) ([1]; initial value, before heating): 7
stability of the parent molecule (conclusion from diketone formation) [2]: not stable
breakdown product diketone (CF3)2CFCOC2F4COCF(CF3)2 ([2]; 150° C., at 7 days): 472 ppm
breakdown product diketone (CF3)2CFCOC2F4COCF(CF3)2 ([2]; 150° C., at 28 days): 195 ppm
appearance of the metal parts of the chiller ([2]; 150° C.): considerable corrosion
appearance of the metal parts of the chiller ([2]; 150° C., listed as II): noticeable corrosion

CCOC(F)(C(F)(F)C(F)(F)F)C(F)(OC(F)(F)C(F)(OC(F)(F)C(F)(F)C(F)(F)F)C(F)(F)F)C(F)(F)F (centres unmarked) [Comparative Example 2, 3-ethoxy-1,1,1,2,2,3,4,5,5,5-decafluoro-4-(1,1,2,3,3,3-hexafluoro-2-heptafluoropropyloxypropoxy)pentane]
ppm Ketone (breakdown product C3F7OCF(CF3)CF2OCF(CF3)C(O)CF2CF3, GC-FID) ([1]; 150° C., Day 1): 140 ppm
ppm Ketone (breakdown product C3F7OCF(CF3)CF2OCF(CF3)C(O)CF2CF3, GC-FID) ([1]; 150° C., Day 2): 300 ppm
ppm Ketone (breakdown product C3F7OCF(CF3)CF2OCF(CF3)C(O)CF2CF3, GC-FID) ([1]; 150° C., Day 3): 503 ppm
ppm Ketone (breakdown product C3F7OCF(CF3)CF2OCF(CF3)C(O)CF2CF3, GC-FID) ([1]; 150° C., Day 6): 1000 ppm
ppm Ketone (breakdown product C3F7OCF(CF3)CF2OCF(CF3)C(O)CF2CF3, GC-FID) ([1]; 150° C., Day 8): 1200 ppm
stability of the HFE to temperature (conclusion from ketone concentration) [1]: not exceptionally stable

COC(F)(C(F)(F)C(F)(F)F)C(F)(OC(F)(F)C(F)(OC(F)(F)C(F)(F)C(F)(F)F)C(F)(F)F)C(F)(F)F (centres unmarked) [Comparative Example 3, 3-methoxy-1,1,1,2,2,3,4,5,5,5-decafluoro-4-(1,1,2,3,3,3-hexafluoro-2-heptafluoropropyloxypropoxy)pentane]
ppm Ketone (breakdown product C3F7OCF(CF3)CF2OCF(CF3)C(O)CF2CF3, GC-FID) ([1]; 150° C., Day 1): 50 ppm
ppm Ketone (breakdown product C3F7OCF(CF3)CF2OCF(CF3)C(O)CF2CF3, GC-FID) ([1]; 150° C., Day 2): 50 ppm
ppm Ketone (breakdown product C3F7OCF(CF3)CF2OCF(CF3)C(O)CF2CF3, GC-FID) ([1]; 150° C., Day 5): 50 ppm
ppm Ketone (breakdown product C3F7OCF(CF3)CF2OCF(CF3)C(O)CF2CF3, GC-FID) ([1]; 150° C., Day 7): 50 ppm
stability of the HFE to temperature (conclusion from ketone concentration) [1]: not exceptionally stable

CCOC(F)(F)C(F)(OC(F)(F)C(F)(OC(F)(F)C(F)(F)C(F)(F)C(F)(F)F)C(F)(F)F)C(F)(F)F (centres unmarked) [Comparative Example 4, 1-(1-{[1-(ethoxydifluoromethyl)-1,2,2,2-tetrafluoroethoxy]-difluoromethyl}-1,2,2,2-tetrafluoroethoxy)-1,1,2,2,3,3,4,4,4-nonafluorobutane]
% Breakdown products (sum of vinyl ether and hydride, GC-FID) ([1]; 150° C., Day 0): 0%
% Breakdown products (sum of vinyl ether and hydride, GC-FID) ([1]; 150° C., Day 3): 0.18%
% Breakdown products (sum of vinyl ether and hydride, GC-FID) ([1]; 150° C., Day 5): 0.32%
% Breakdown products (sum of vinyl ether and hydride, GC-FID) ([1]; 150° C., Day 7): 0.49%

CCOC(F)(F)C(F)(OC(F)(F)C(F)(OC(F)(F)C(F)(OC(F)(F)C(F)(F)C(F)(F)F)C(F)(F)F)C(F)(F)F)C(F)(F)F (centres unmarked) [Comparative Example 5, 1-{1-[(1-{[1-(ethoxydifluoromethyl)-1,2,2,2-tetrafluoroethoxy]difluoro-methyl}-1,2,2,2-tetrafluoroethoxy)difluoromethyl]-1,2,2,2-tetrafluoroethoxy}-1,1,2,2,3,3,3-heptafluoro-propane]
% Breakdown products (sum of vinyl ether and hydride, GC-FID) ([1]; 150° C., Day 0): 0%
% Breakdown products (sum of vinyl ether and hydride, GC-FID) ([1]; 150° C., Day 2.75): 0.18%
% Breakdown products (sum of vinyl ether and hydride, GC-FID) ([1]; 150° C., Day 4.75): 0.38%
% Breakdown products (sum of vinyl ether and hydride, GC-FID) ([1]; 150° C., Day 6.75): 0.45%
% Breakdown products (sum of vinyl ether and hydride, GC-FID) ([1]; 150° C., Day 9.75): 0.55%
% Breakdown products (sum of vinyl ether and hydride, GC-FID) ([1]; 150° C., Day 18.75): 1.59%

FC(C(F)(F)F)C(F)(F)OCC(F)(F)C(F)(F)C(F)(F)C(F)(F)C(F)(F)C(F)F (centres unmarked) [Example 1, 7-(1,1,2,3,3,3-hexafluoropropoxy)-1,1,2,2,3,3,4,4,5,5,6,6-dodecafluoroheptane]
changes in product purity / breakdown products of the parent molecule (GC/MS, GC-FID) ([1]; PYREX glass flask, reflux condenser, under nitrogen, 150° C. for 36 days): No changes in product purity were observed
breakdown products ([1]; after 36 days at 150° C., heated to 180° C. for an additional 14 days): No breakdown products were observed
HF in head space of the flask (PortaSens HF gas detector probe) ([1]; entire 50 day heating period (150° C. 36 days, 180° C. 14 days)): detected no HF
HF level in head space of the chiller ([2]; 150° C., by day 13): 0 ppm
increase in HF levels in head space of the chiller (PortaSens HF gas detector probe) ([2]; 150° C., entire 28 day heating period): detected no increase in the HF levels
HF level in head space of the chiller ([2]; 150° C., observed initially): 1.4 ppm
HF in the liquid phase by titration ([2]; 150° C., over the chiller test (about 28-30 days)): ≤ 0.52 ppm
appearance of the metal parts of the chiller ([2]; 150° C.): essentially unchanged
changes in the composition of the circulating fluid (NMR, GC/MS) [2]: no significant deterioration
changes in the composition of the circulating fluid (NMR, GC/MS) ([2]; listed as HC6F12CH2OCF2CFHCF3): No changes in the composition of the fluid were observed

FC(OC(F)(F)F)C(F)(F)OCC(F)(F)C(F)(F)C(F)(F)C(F)(F)C(F)(F)C(F)F (centres unmarked) [Example 2, 1,1,2,2,3,3,4,4,5,5,6,6-dodecafluoro-7-(1,1,2-trifluoro-2-trifluoromethoxyethoxy)heptane]
changes in product purity (gas chromatography, GC/MS) ([1]; flask, reflux condenser, under nitrogen, 175° C. for 15 days): No changes in product purity were observed
